We go through 2 molecules from paper PMC12668310, “High‐Throughput Synthesis and Screening of a Cyanimide Library Identifies Selective Inhibitors of ISG15‐Specific Protease mUSP18” (Angewandte Chemie (International Ed. in English), 2025).

In assay [1] the target is T1, mUSP18 (Mus musculus, UniProt Q9WTV6).
T1 construct: (46-368); His-tag (N); made in house
T1 sequence (Q9WTV6 46-368): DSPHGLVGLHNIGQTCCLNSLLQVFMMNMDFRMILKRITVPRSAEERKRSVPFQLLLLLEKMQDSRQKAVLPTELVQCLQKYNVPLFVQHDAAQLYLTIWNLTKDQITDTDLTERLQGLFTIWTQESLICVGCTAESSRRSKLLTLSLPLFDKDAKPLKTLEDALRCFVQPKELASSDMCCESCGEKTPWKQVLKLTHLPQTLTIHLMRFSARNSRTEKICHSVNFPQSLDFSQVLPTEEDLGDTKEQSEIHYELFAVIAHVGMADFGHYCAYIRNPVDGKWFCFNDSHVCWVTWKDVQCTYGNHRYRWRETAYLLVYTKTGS
The assay is described as follows: IC50 determination, fluorogenic ISG15CT-Rho-morpholine activity assay. In kind it is biochemical, murine.

Assay [2] concerns the target T1, mUSP18. Put plainly: High-throughput screening, ISG15ct-RhoMP, single dose 1.25 µM. Type of assay: biochemical, murine. The following applies: crude in-plate synthesized compound, 1.25 µM assuming full conversion; read-out: %inhibition mUSP18.
The test system of assay [3] is 12 Ub(‐like) proteases. The assay is described as follows: High-throughput screening, whole panel of twelve enzymes. Type of assay: biochemical. To be noted: crude mixture, 1.25 µM; enzymes other than mUSP18. The protocol: Since the in‐plate synthesis was conducted in 1536‐well Echo plates, the compounds could readily be transferred from these plates into 1536‐well assay plates using acoustic liquid dispensing (Figure 2a) and subjected to HTS. We screened the whole 7536 compound library against a panel of twelve enzymes, including three DUBs from the UCH family, two DUBs from the OTU family, five DUBs from the USP family, plus ISG15 protease USP18, and SUMO protease SENP1. Each compound was tested at a single dose of 1.25 µM, assuming full conversion (10 mM in DMSO of the formed products) during the in‐plate synthesis, using the fluorogenic assay described above. […] The compounds are sorted by the amine building blocks (BB1‐16), and within each BB, sorted by carboxylic acid (CA1‐471), thereby providing a comprehensive and systematic overview of the overall inhibition by each BB and CA combination. Some interesting patterns can be obtained from this map. […] Indeed, BB10 is the privileged scaffold for UCHL1 as it originates from UCHL1 inhibitor 5 (Figure 1). […]
(§1) The percentage inhibition was calculated for each well using the […]
(§2) Where FIx is the fluorescence intensity of each well, FIpos is the average fluorescence intensity of the positive (NEM) control wells, and FIneg is the average fluorescence intensity of the negative (DMSO) control wells.

Assay [4] has as its target T2, UCHL1 (Homo sapiens, UniProt P09936).
T2 construct: (1-223); made in house
T2 sequence (P09936 1-223): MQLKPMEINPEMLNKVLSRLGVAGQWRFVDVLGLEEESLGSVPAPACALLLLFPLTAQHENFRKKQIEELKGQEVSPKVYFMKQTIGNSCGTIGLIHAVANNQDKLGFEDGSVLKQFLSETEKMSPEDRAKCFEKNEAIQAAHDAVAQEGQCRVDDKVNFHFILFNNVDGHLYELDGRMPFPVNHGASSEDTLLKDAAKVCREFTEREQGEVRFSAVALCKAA
The assay is described as follows: IC50 determination, fluorogenic Ub-Rho-morpholine activity assay. In kind it is biochemical. To be noted: after 30 min incubation; purified compound.

The target of assay [5] is T3, UCHL3 (Homo sapiens, UniProt P15374).
T3 construct: (1-230); made in house
T3 sequence (P15374 1-230): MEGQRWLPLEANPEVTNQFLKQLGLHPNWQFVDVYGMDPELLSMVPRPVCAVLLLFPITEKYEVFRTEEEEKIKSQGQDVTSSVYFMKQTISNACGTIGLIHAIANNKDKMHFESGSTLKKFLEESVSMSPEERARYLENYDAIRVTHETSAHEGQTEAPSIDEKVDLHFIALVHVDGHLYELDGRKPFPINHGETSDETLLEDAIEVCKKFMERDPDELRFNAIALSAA
Described as above. The following applies: after 30 min incubation; purified compound. Type of assay: biochemical.

The target of assay [6] is T4, USP7 (Homo sapiens, UniProt Q93009).
T4 construct: (1-1102); GST (cleaved yes); made in house
The assay is described as above. Type of assay: biochemical. The following applies: after 30 min incubation; purified compound.

The target of assay [7] is T5, USP32 (Homo sapiens, UniProt Q8NFA0).
T5 construct: (1-1604); His-tag (N); made in house
The assay is described as above. Type of assay: biochemical. To be noted: after 30 min incubation; purified compound.

In assay [8] the target is T6, OTUB2 (Homo sapiens, UniProt Q96DC9).
T6 sequence (Q96DC9 1-234): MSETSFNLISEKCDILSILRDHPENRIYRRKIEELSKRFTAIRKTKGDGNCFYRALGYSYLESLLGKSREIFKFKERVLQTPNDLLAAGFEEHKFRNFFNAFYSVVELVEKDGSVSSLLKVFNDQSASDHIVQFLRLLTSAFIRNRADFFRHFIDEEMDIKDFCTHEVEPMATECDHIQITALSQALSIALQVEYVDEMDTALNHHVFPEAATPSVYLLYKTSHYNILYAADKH
The assay is described as follows: biochemical.
Procedure: (§3) This panel included five proteases from the USP family, two from the UCH family, and one OTU. The IC50 values were determined in a well‐established biochemical activity assay using the fluorogenic substrate Ub‐Rho‐morpholine.^[ [33] ^]
(§4) Enzymes were pre-incubated with a concentration series of the compounds for 30 minutes at
(§5) room temperature, before addition of the substrate and direct read-out by fluorescence
(§6) intensity. Data is presented as mean ± SD, n=3.
(§7) USP16 Full length N-terminal His-tag Q9Y5T5 In-house, [Mons, 2 nM
IC50 and kinact/KI determination
(§8) The assays were performed at room temperature in “nonbinding surface flat bottom low flange”
(§9) TrisꞏHCl, 100 mM NaCl, pH 7.6, 2.0 mM cysteine, 1 mg/mL 3-[(3-cholamidopropyl)-
(§10) dimethylammonio]propanesulfonic acid (CHAPS), and 0.5 mg/mL γ-globulins from bovine
(§11) blood (BGG). […] The compounds were dissolved in 10
(§12) mM DMSO stocks, and appropriate volumes were transferred to the empty plates using a
(§13) Labcyte Echo550 acoustic dispenser. A DMSO back-fill was performed to obtain equal volumes of DMSO (400 μL) in each well. N-ethylmaleimide (NEM, 10 mM) was used a positive
steps were performed on a Biotek MultiflowFX liquid dispenser. […]
(§14) RhoMP, 10 µM for Z-FR-AMC), and the increase in fluorescence over time was recorded using
excitation 360 nm, emission 450 nm for AMC). The initial enzyme velocities were calculated […]

Assay [9] has as its target USP16 (Homo sapiens, UniProt Q9Y5T5). Put plainly: biochemical.
Procedure: as §3, §4, §5, §6, §7
IC50 and kinact/KI determination
as §8, §9, §10, §11, §12, §13
(§15) steps were performed on a Biotek MultiflowFX liquid dispenser. A 10 μL portion of buffer was added and the plate was vigorously shaken for 20s. Next, 5 μL of recombinant enzyme (4x final concentration) was added followed by incubation for 1h. A 5 μL portion of the substrate
(§16) (Ub-RhoMP[2] for all DUBs, ISG15ct-RhoMP (vide supra) for USP18 and Z-FR-AMC [Bachem,
as §14
(§17) excitation 360 nm, emission 450 nm for AMC). The initial enzyme velocities were calculated
(§18) from the slopes, normalized to the positive and negative controls, and plotted against the
(§19) inhibitor concentrations using the built-in equation “[inhibitor] vs response − variable slope
(§20) (four parameters), least-squares fit” with constraints “Bottom = 0” and “Top = 100” in GraphPad
(§21) Prism 7 software to obtain the IC50 values.
(§22) All data fitting and calculations were done using GraphPad Prism 7 software.
Assay [10] concerns the target T7, USP30 (Homo sapiens, UniProt Q70CQ3).
T7 sequence (Q70CQ3 57-517): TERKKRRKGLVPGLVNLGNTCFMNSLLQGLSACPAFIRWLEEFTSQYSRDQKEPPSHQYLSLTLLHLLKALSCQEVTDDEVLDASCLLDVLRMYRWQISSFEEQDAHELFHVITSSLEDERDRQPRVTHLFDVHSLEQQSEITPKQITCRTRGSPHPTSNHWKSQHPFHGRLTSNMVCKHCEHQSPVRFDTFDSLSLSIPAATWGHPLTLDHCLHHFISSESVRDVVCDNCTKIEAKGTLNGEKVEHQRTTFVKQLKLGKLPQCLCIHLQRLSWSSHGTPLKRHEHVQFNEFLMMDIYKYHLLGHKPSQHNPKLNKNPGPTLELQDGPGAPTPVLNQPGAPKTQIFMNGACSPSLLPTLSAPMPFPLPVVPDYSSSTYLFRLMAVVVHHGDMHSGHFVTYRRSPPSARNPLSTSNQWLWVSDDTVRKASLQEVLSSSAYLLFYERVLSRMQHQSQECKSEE
Put plainly: biochemical.
Procedure: This panel included five proteases from the USP family, two from the UCH family, and one OTU. The IC50 values were determined in a well‐established biochemical activity assay using the fluorogenic substrate Ub‐Rho‐morpholine.^[ [33] ^] For USP18, which is unreactive to Ub but specific for ISG15, we used the ISG15CT‐Rho‐morpholine (consisting of the C‐terminal domain of ISG15) substrate to monitor its activity (see Supporting Information for preparation of this substrate).
as §4, §5, §6
room temperature, followed by the addition of substrate and direct read-out by fluorescence
IC50 and kinact/KI determination
as §8, §9, §10, §11, §12, §13, §15, §16, §14, §17, §18, §19, §20, §21, §22

Assay [11] concerns the target T7, USP30. The assay is described as follows: High-throughput screening, Ub-RhoMP, single dose 1.25 µM. The arrangement: USP30 CD (57-517); purchased Ubiquigent 64-0057-050. To be noted: crude in-plate synthesized compound, 1.25 µM assuming full conversion. Type of assay: biochemical. The procedure: Since the in‐plate synthesis was conducted in 1536‐well Echo plates, the compounds could readily be transferred from these plates into 1536‐well assay plates using acoustic liquid dispensing (Figure 2a) and subjected to HTS. We screened the whole 7536 compound library against a panel of twelve enzymes, including three DUBs from the UCH family, two DUBs from the OTU family, five DUBs from the USP family, plus ISG15 protease USP18, and SUMO protease SENP1. Each compound was tested at a single dose of 1.25 µM, assuming full conversion (10 mM in DMSO of the formed products) during the in‐plate synthesis, using the fluorogenic assay described above. […] The compounds are sorted by the amine building blocks (BB1‐16), and within each BB, sorted by carboxylic acid (CA1‐471), thereby providing a comprehensive and systematic overview of the overall inhibition by each BB and CA combination. Some interesting patterns can be obtained from this map. […] Indeed, BB10 is the privileged scaffold for UCHL1 as it originates from UCHL1 inhibitor 5 (Figure 1). […] On the other hand, OTUD1 and USP32 show a much higher hit rate, and this is even more pronounced for USP30 and ISG15 protease mUSP18, each showing many active compounds distributed over several BB's.
Purified recombinant enzymes used in this study
High-throughput screening
The screens were performed at room temperature in “flat bottom, non-treated, black […]
µM. The compounds (10 nL each) were transferred from the 1 mM daughter plates to the […]
Four wells containing DMSO
(10 nL) and four wells containing NEM (10 mM final concentration) were used in each plate […]
solution (1.33x final concentration) was added to each well, followed by incubation for 30 min.
Next, 2 µL of a substrate solution (4x final concentration) was added to each well (Ub-RhoMP[2]
After 1h or 2h incubation the
as §1, §2

In general, IC50 refers to the concentration that inhibits the measured activity by half. Higher therefore signals weaker potency. In general, inhibition refers to the change of the read-out against control, counted positive when it falls.

T5 sequence (Q8NFA0 whole entry): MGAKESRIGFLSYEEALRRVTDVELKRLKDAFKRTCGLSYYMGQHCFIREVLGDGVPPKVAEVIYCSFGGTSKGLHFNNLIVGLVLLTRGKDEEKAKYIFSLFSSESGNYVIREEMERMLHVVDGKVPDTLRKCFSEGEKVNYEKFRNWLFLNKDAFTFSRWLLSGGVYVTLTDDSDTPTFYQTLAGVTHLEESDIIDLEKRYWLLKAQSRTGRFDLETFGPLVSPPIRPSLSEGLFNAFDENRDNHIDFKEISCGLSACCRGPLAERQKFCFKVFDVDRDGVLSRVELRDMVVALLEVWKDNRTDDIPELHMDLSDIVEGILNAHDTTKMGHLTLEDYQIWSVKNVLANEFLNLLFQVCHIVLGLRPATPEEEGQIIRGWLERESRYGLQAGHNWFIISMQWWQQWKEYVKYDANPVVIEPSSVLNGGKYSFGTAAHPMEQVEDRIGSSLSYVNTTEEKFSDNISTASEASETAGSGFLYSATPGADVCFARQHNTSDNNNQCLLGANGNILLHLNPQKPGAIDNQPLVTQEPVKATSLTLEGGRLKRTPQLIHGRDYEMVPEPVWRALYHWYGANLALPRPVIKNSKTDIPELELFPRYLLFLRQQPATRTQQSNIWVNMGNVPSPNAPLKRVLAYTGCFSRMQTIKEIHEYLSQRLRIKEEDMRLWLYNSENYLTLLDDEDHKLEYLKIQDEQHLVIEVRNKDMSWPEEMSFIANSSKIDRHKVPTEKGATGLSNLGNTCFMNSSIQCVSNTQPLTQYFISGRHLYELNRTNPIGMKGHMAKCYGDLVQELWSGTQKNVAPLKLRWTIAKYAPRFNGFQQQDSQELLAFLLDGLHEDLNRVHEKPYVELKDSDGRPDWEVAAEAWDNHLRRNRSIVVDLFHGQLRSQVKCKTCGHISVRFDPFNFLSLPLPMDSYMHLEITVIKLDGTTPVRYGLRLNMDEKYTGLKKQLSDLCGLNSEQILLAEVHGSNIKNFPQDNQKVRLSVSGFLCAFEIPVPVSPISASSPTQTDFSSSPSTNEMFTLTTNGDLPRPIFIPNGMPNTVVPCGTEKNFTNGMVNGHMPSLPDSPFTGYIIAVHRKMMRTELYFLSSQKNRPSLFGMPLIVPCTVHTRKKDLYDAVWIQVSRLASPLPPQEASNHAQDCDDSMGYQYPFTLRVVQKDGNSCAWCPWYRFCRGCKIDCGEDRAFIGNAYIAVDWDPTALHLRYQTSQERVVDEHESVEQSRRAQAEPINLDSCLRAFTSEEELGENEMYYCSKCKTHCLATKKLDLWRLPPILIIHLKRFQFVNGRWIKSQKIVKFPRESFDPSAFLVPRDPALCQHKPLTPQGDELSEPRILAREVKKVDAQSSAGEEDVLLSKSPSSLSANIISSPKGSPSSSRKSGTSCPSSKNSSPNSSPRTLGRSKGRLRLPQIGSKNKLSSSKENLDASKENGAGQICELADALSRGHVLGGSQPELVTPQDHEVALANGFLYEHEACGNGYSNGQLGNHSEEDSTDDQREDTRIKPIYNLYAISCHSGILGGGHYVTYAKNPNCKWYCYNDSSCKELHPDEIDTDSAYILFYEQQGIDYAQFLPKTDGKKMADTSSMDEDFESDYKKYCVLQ
USP16, sequence (Q9Y5T5 22-823): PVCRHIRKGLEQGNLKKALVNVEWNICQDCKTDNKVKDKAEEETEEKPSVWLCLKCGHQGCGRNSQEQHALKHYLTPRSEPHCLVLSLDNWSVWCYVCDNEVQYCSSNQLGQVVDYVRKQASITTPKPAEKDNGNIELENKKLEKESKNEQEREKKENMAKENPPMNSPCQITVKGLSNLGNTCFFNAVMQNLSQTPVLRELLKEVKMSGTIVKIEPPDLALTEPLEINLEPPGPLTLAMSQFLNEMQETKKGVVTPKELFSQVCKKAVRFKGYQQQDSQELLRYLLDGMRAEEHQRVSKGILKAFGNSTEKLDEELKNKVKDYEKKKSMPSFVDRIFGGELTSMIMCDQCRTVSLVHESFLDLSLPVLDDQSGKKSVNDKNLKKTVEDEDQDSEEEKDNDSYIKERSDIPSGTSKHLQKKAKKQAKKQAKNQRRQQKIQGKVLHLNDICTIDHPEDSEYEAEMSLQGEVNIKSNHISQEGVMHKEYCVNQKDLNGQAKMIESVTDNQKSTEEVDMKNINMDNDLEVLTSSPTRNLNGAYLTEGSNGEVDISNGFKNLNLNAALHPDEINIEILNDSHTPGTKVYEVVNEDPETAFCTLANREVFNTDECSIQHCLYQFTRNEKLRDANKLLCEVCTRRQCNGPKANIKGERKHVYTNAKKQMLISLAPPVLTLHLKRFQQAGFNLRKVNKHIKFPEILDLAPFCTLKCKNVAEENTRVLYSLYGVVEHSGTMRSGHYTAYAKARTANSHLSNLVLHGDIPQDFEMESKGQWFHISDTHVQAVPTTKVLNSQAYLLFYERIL
T4 sequence (Q93009 whole entry): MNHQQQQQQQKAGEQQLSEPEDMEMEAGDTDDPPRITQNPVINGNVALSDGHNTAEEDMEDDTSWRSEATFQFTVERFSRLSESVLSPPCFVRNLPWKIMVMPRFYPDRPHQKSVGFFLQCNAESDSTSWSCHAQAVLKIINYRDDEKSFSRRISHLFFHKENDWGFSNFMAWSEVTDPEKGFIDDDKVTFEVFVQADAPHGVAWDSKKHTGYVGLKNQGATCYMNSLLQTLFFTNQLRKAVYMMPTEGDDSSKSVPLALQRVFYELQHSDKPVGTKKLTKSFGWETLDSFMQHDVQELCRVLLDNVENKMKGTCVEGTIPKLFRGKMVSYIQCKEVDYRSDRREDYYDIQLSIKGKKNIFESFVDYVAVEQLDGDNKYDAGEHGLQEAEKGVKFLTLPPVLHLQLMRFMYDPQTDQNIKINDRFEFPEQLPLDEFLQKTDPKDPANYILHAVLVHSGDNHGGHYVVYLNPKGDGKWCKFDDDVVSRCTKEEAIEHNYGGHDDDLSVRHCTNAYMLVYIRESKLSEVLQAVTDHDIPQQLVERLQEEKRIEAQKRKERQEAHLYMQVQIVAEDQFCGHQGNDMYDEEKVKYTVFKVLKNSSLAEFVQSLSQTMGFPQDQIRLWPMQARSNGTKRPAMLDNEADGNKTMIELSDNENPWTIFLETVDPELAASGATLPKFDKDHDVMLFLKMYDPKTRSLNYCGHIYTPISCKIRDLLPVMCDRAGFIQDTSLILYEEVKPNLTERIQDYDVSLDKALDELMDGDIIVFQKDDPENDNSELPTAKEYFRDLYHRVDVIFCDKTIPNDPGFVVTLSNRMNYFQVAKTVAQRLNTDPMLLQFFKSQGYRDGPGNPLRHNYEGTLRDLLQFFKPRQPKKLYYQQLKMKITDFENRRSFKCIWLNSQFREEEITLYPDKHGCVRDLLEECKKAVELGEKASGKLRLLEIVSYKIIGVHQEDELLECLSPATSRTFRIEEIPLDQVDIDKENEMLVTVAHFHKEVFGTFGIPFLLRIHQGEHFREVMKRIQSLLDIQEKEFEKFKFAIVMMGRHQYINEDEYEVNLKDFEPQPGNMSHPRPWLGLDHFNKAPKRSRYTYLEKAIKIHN

Turning to `N#CN1C[C@H]2C[C@H](NC(=O)CCC3CCCCC3)C[C@H]2C1` [BB07CA48], in assay [1] (pure (re-synthesized) compound, mean ± SD n = 3), the IC50 is 0.24 ± 0.0099 µM. In addition, the inhibition at 1.25 µM in assay [2] came to 75%. The “inhibition of all other enzymes tested” value in assay [3] was “negligible inhibition”.

For the molecule `N#CN1CC[C@@H](NC(=O)c2cc(-c3cccc(Cl)c3)no2)C1` [Compound 1], the IC50 in [4] is 54 µM; in assay [5] it was 229 µM; in assay [6] it was 42 µM; in assay [1] (after 30 min incubation, purified compound, ISG15CT-Rho-morpholine substrate) it was 0.079 µM; in assay [7], 0.53 µM; in assay [8], greater than 200 µM. Also, the IC50 in assay [9] was 5.1 µM; in assay [10], 0.043 µM. Also, the inhibition at 1.25 µM in [2] is roughly 90%. The “%inhibition USP30” value in assay [11] is listed as roughly 90%.
